Structures are written as SMILES. Starred links: 1 amine or outer side, 2 acyl side, 3 side chain; linkers in the order of their positions; H or OH if unused. Non-standard residues stand in square brackets, D forms with d. Residues, ends and D or L forms follow the SMILES beside them. *: point of attachment. dAla(cis-4-NHCOPyz-cHex) = N[C@H](C[C@H]1CC[C@@H](NC(=O)c2cnccn2)CC1)C(=O)O; X2 = O=C(N[C@H]1CC[C@@H](C[C@H](N[*:1])C(=O)[*:2])CC1)c1cnccn1; X7 = O=C(N[C@H]1CC[C@H](C[C@@H](N[*:1])C(=O)[*:2])CC1)c1cccnc1; dPhe(4-Cl) = N[C@H](Cc1ccc(Cl)cc1)C(=O)O; Pyrimidin2yl(4,6-Me2) = Cc1cc(C)nc(*)n1; X10 = O=C([C@@H](Cc1cnccn1)N[*:1])[*:2]; d2Nal = N[C@H](Cc1ccc2ccccc2c1)C(=O)O; Lys(iPr) = CC(C)NCCCC[C@H](N)C(=O)O; Lys(Me2) = CN(C)CCCC[C@H](N)C(=O)O; Orn(iPr) = CC(C)NCCC[C@H](N)C(=O)O; aIle = CC[C@@H](C)[C@H](N)C(=O)O; d3Pal = N[C@H](Cc1cccnc1)C(=O)O; NMeL = CN[C@@H](CC(C)C)C(=O)O; Nicotinoyl = O=C(c1cccnc1)*; Picolinoyl = O=C(c1ccccn1)*; dOrn = NCCC[C@@H](N)C(=O)O; Orn = NCCC[C@H](N)C(=O)O

For the first data set, the system named is anaesthesized rats. As to the kind of experiment: wheal test, intradermal injection. To be noted: 10 ug peptide intradermally. It is filed as in vivo, rat. As for the experimental part: The antiovulatory activity, AOA, in rats was determined as described by Humphries et al. (12). Antiovulation assays were performed by counting, on estrus, the number of ova shed by 4-day cycling rats after a single sc injection of the LH-RH analogue in corn oil was administered between 12 and 12:30 p.m. on […]. The control rats received 0.3 mL of the vehicle. The wheal test was performed by intradermally injecting 10 ug of peptide in 100 ul of saline into anaesthesized rats, measuring the ideally circular wheal response and calculating the area. The in vitro histamine release test was done as described by Karten et al. (4). A suspension of rat mast cells was added to increasing concentrations of peptide and the mixture was incubated for a few minutes followed by centrifugation to collect the histamine in the supernatant. A PIPES (piperazine-N,N'-bis[2-ethanesulfonic acid]) medium buffered at pH 7.4 containing NaCl 119 mM, KCl 5 mM, PIPES 25 mM, NaOH 40 mM, glucose 5.6 mM, CaCl2 1 mM, and 0.1% bovine serum albumin was used. This was designated as PIPES AC. Peptides were dissolved in double distilled H2 O at a concentration of 2 mg/ml and stored at -20° C. They were thawed just prior to testing, diluted in PIPES AC and prewarmed for five minutes at 37° C. Peptides studied were stable to heating at 56° C. for two hours, and to freezing and thawing.
Consider `CC(=O)N[C@H](Cc1ccc2ccccc2c1)C(=O)N[C@H](Cc1ccc(Cl)cc1)C(=O)N[C@H](Cc1cccnc1)C(=O)N[C@@H](CO)C(=O)N[C@@H](CCCCNC(=O)c1ccccn1)C(=O)N[C@H](CCCCNC(=O)c1ccccn1)C(=O)N[C@@H](C)C(=O)N[C@@H](CCCCNC(C)C)C(=O)N1CCC[C@H]1C(=O)N[C@H](C)C(N)=O` [compound 26099] (Ac-[d2Nal][dPhe(4-Cl)][d3Pal]SK(Picolinoyl)[dK](Picolinoyl)A[Lys(iPr)]P[dA]-NH2), for which the “Wheal Area” value amounted to 103.9 ± 3.7 mm^2 /10 μg.

On to `CC(=O)N[C@H](Cc1ccc2ccccc2c1)C(=O)N[C@H](Cc1ccc(Cl)cc1)C(=O)N[C@H](Cc1cccnc1)C(=O)N[C@@H](CO)C(=O)N[C@@H](CCCCNC(=O)c1ccccn1)C(=O)N[C@H](C[C@H]1CC[C@@H](NC(=O)c2cnccn2)CC1)C(=O)N[C@@H](CC(C)C)C(=O)N[C@@H](CCCCNC(C)C)C(=O)N1CCC[C@H]1C(=O)N[C@H](CO)C(N)=O` [compound 26348] (Ac-[d2Nal][dPhe(4-Cl)][d3Pal]SK(Picolinoyl)[dAla(cis-4-NHCOPyz-cHex)]L[Lys(iPr)]P[dS]-NH2), for which the “Wheal Area” value amounted to 122.8 ± 5.7 mm^2 /10 μg.

`CC[C@@H](C)[C@H](NC(=O)[C@@H](CCCCNC(=O)c1ccccn1)NC(=O)[C@H](CCCCNC(=O)c1ccccn1)NC(=O)[C@H](CO)NC(=O)[C@@H](Cc1cccnc1)NC(=O)[C@@H](Cc1ccc(Cl)cc1)NC(=O)[C@@H](Cc1ccc2ccccc2c1)NC(C)=O)C(=O)N[C@@H](CCCNC(C)C)C(=O)N1CCC[C@H]1C(=O)N[C@H](C)C(N)=O` [compound 26178] (Ac-[d2Nal][dPhe(4-Cl)][d3Pal]SK(Picolinoyl)[dK](Picolinoyl)[aIle][Orn(iPr)]P[dA]-NH2): the “Wheal Area” value was found to be 78.6 ± 4.5 mm^2 /10 μg.

For `CC(=O)N[C@H](Cc1ccc2ccccc2c1)C(=O)N[C@H](Cc1ccc(Cl)cc1)C(=O)N[C@H](Cc1cccnc1)C(=O)N[C@@H](CO)C(=O)N[C@@H](CCCCNC(=O)c1cccnc1)C(=O)N[C@H](C[C@H]1CC[C@H](NC(=O)c2cccnc2)CC1)C(=O)N[C@@H](CC(C)C)C(=O)N[C@@H](CCCCNC(C)C)C(=O)N1CCC[C@H]1C(=O)N[C@H](C)C(N)=O` [IBR 25647] (Ac-[d2Nal][dPhe(4-Cl)][d3Pal]SK(Nicotinoyl)[X7]L[Lys(iPr)]P[dA]-NH2), the “Wheal Area” value is given as 119.5 ± 3.2 mm^2 /10 μg.

Regarding `CC(=O)N[C@H](Cc1ccc2ccccc2c1)C(=O)N[C@H](Cc1ccc(Cl)cc1)C(=O)N[C@H](Cc1cccnc1)C(=O)N[C@@H](CO)C(=O)N[C@@H](C[C@H]1CC[C@@H](NC(=O)c2cnccn2)CC1)C(=O)N[C@H](Cc1cnccn1)C(=O)N[C@@H](CC(C)C)C(=O)N[C@@H](CCCNC(=N)N)C(=O)N1CCC[C@H]1C(=O)N[C@H](C)C(N)=O` [compound 26417] (Ac-[d2Nal][dPhe(4-Cl)][d3Pal]S[X2][X10]LRP[dA]-NH2), the “Wheal Area” value was determined as 133.2 ± 11.8 mm^2 /10 μg.

For `CC(=O)N[C@H](Cc1ccc2ccccc2c1)C(=O)N[C@H](Cc1ccc(Cl)cc1)C(=O)N[C@H](Cc1cccnc1)C(=O)N[C@@H](CO)C(=O)N[C@@H](CCCCNC(=O)c1cccnc1)C(=O)N[C@H](CCCCNC(=O)c1cccnc1)C(=O)N(C)[C@@H](CC(C)C)C(=O)N[C@@H](CCCCNC(C)C)C(=O)N1CCC[C@H]1C(=O)N[C@H](C)C(N)=O` [compound 26345] (Ac-[d2Nal][dPhe(4-Cl)][d3Pal]SK(Nicotinoyl)[dK](Nicotinoyl)[NMeL][Lys(iPr)]P[dA]-NH2), the “Wheal Area” value is listed as 110.5 ± 11.4 mm^2 /10 μg.

Staying with this data set, now noted: Table I; 10 ug peptide intradermally.
Compound `CC(=O)N[C@H](Cc1ccc2ccccc2c1)C(=O)N[C@H](Cc1ccc(Cl)cc1)C(=O)N[C@H](Cc1cccnc1)C(=O)N[C@@H](CO)C(=O)N[C@@H](CCCNC(=O)c1cccnc1)C(=O)N[C@H](CCCCNC(=O)c1cccnc1)C(=O)N[C@@H](CC(C)C)C(=O)N[C@@H](CCCNC(C)C)C(=O)N1CCC[C@H]1C(=O)N[C@H](C)C(N)=O` [compound 25333] (Ac-[d2Nal][dPhe(4-Cl)][d3Pal]S[Orn](Nicotinoyl)[dK](Nicotinoyl)L[Orn(iPr)]P[dA]-NH2) registered a Wheal of 113.6 mm^2 /10.

`CC[C@H](C)[C@H](NC(=O)[C@H](CO)NC(=O)[C@@H](Cc1cccnc1)NC(=O)[C@@H](Cc1ccc(Cl)cc1)NC(=O)[C@@H](Cc1ccc2ccccc2c1)NC(C)=O)C(=O)N[C@H](CCCCNC(=O)c1cccnc1)C(=O)N[C@@H](CC(C)C)C(=O)N[C@@H](CCCCNC(C)C)C(=O)N1CCC[C@H]1C(=O)N[C@H](C)C(N)=O` [compound 25144] (Ac-[d2Nal][dPhe(4-Cl)][d3Pal]SI[dK](Nicotinoyl)L[Lys(iPr)]P[dA]-NH2) showed a Wheal of 147.7 mm^2 /10.

On to `CC(=O)N[C@H](Cc1ccc2ccccc2c1)C(=O)N[C@H](Cc1ccc(Cl)cc1)C(=O)N[C@H](Cc1cccnc1)C(=O)N[C@@H](CO)C(=O)N[C@@H](CCCCNC(=O)c1cccnc1)C(=O)N[C@H](CCCCNC(=O)c1cccnc1)C(=O)N[C@@H](CC(C)C)C(=O)N[C@@H](CCCNC(=N)N)C(=O)N1CCC[C@H]1C(=O)N[C@H](C)C(N)=O` [compound 24594] (Ac-[d2Nal][dPhe(4-Cl)][d3Pal]SK(Nicotinoyl)[dK](Nicotinoyl)LRP[dA]-NH2), for which the Wheal is reported as 126.2 ± 8.8 mm^2 /10.

Compound `CC(=O)N[C@H](Cc1ccc2ccccc2c1)C(=O)N[C@H](Cc1ccc(Cl)cc1)C(=O)N[C@H](Cc1cccnc1)C(=O)N[C@@H](CO)C(=O)N[C@@H](CCCCNC(=O)c1cccnc1)C(=O)N[C@H](CCCNc1nc(C)cc(C)n1)C(=O)N[C@@H](CC(C)C)C(=O)N[C@@H](CCCCNC(C)C)C(=O)N1CCC[C@H]1C(=O)N[C@H](C)C(N)=O` [compound 25334] (Ac-[d2Nal][dPhe(4-Cl)][d3Pal]SK(Nicotinoyl)[dOrn](Pyrimidin2yl(4,6-Me2))L[Lys(iPr)]P[dA]-NH2) registered a Wheal of 165.2 mm^2 /10.

In turn, `CC(=O)N[C@H](Cc1ccc2ccccc2c1)C(=O)N[C@H](Cc1ccc(Cl)cc1)C(=O)N[C@H](CCCCNC(=O)c1cccnc1)C(=O)N[C@@H](CO)C(=O)N[C@@H](Cc1ccc(O)cc1)C(=O)N[C@H](CCCCNC(=O)c1cccnc1)C(=O)N[C@@H](CC(C)C)C(=O)N[C@@H](CCCNC(=N)N)C(=O)N1CCC[C@H]1C(=O)N[C@H](C)C(N)=O` [compound 24597] (Ac-[d2Nal][dPhe(4-Cl)][dK](Nicotinoyl)SY[dK](Nicotinoyl)LRP[dA]-NH2) displayed a Wheal of 101.0 mm^2 /10.

In turn, `CC(=O)N[C@H](Cc1ccc2ccccc2c1)C(=O)N[C@H](Cc1ccc(Cl)cc1)C(=O)N[C@H](Cc1cccnc1)C(=O)N[C@@H](CO)C(=O)N[C@@H](Cc1ccc(O)cc1)C(=O)N[C@H](CCCCNC(=O)c1cccnc1)C(=O)N[C@@H](CC(C)C)C(=O)N[C@@H](CCCCN(C)C)C(=O)N1CCC[C@H]1C(=O)N[C@H](C)C(N)=O` [compound 24443] (Ac-[d2Nal][dPhe(4-Cl)][d3Pal]SY[dK](Nicotinoyl)L[Lys(Me2)]P[dA]-NH2) returned a Wheal of 122.7 mm^2 /10.

The compound `CC(=O)N[C@H](Cc1ccc2ccccc2c1)C(=O)N[C@H](Cc1ccc(Cl)cc1)C(=O)N[C@H](Cc1cccnc1)C(=O)N[C@@H](CO)C(=O)N[C@@H](CCCCNC(=O)c1cccnc1)C(=O)N[C@H](Cc1c[nH]cn1)C(=O)N[C@@H](CC(C)C)C(=O)N[C@@H](CCCNC(=N)N)C(=O)N1CCC[C@H]1C(=O)N[C@H](C)C(N)=O` [compound 24544] (Ac-[d2Nal][dPhe(4-Cl)][d3Pal]SK(Nicotinoyl)[dH]LRP[dA]-NH2) gave a Wheal of 146.7 ± 3.6 mm^2 /10.

Values taken from US5763404A, “Methods for using LHRH antagonists with low histamine release” (priority 1995, dated 1998).
